Broadly, the inhibition is the relative decrease from the control value, in per cent.

The structures appear in SMILES notation. Like-named read-outs stand apart in the source and are kept apart here.

The text below walks through data of patent publication US11572590B2, “Methods for evaluating tumor cell spheroids using 3D microfluidic cell culture device” (Dana-Farber Cancer Institute, Inc., priority 2017, dated 2023).

What all share (assay): SelectScreen Kinase Profiling, single point inhibition and IC50 for off-target kinases
Holding throughout (type): biochemical

The target in assay [1] is off-target kinases (Homo sapiens, UniProt Q9NYA1). To be noted: SPHK1, Adapta, ATP Km app.
off-target kinases (Homo sapiens, UniProt Q9NYA1), sequence (Q9NYA1 whole entry): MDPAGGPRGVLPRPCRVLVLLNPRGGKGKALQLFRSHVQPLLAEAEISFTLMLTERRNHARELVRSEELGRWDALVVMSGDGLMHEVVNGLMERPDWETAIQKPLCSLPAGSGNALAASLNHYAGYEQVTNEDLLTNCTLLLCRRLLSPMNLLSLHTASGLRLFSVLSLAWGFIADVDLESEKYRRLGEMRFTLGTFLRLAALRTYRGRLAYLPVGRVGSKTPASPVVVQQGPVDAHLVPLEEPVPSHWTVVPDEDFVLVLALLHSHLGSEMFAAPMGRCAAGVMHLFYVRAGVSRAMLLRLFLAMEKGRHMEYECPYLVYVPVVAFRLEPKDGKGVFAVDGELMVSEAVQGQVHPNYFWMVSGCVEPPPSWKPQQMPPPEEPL
The target of assay [2] is off-target kinases (Homo sapiens, UniProt Q9UM73, F1174L). Conditions: ALK F1174L, mutant y, LanthaScreen Binding. In general terms: In TR-FRET formats the signal depends on donor and acceptor labels being close together.
off-target kinases (Homo sapiens, UniProt Q9UM73, F1174L), sequence (Q9UM73 19-1620 F1174L): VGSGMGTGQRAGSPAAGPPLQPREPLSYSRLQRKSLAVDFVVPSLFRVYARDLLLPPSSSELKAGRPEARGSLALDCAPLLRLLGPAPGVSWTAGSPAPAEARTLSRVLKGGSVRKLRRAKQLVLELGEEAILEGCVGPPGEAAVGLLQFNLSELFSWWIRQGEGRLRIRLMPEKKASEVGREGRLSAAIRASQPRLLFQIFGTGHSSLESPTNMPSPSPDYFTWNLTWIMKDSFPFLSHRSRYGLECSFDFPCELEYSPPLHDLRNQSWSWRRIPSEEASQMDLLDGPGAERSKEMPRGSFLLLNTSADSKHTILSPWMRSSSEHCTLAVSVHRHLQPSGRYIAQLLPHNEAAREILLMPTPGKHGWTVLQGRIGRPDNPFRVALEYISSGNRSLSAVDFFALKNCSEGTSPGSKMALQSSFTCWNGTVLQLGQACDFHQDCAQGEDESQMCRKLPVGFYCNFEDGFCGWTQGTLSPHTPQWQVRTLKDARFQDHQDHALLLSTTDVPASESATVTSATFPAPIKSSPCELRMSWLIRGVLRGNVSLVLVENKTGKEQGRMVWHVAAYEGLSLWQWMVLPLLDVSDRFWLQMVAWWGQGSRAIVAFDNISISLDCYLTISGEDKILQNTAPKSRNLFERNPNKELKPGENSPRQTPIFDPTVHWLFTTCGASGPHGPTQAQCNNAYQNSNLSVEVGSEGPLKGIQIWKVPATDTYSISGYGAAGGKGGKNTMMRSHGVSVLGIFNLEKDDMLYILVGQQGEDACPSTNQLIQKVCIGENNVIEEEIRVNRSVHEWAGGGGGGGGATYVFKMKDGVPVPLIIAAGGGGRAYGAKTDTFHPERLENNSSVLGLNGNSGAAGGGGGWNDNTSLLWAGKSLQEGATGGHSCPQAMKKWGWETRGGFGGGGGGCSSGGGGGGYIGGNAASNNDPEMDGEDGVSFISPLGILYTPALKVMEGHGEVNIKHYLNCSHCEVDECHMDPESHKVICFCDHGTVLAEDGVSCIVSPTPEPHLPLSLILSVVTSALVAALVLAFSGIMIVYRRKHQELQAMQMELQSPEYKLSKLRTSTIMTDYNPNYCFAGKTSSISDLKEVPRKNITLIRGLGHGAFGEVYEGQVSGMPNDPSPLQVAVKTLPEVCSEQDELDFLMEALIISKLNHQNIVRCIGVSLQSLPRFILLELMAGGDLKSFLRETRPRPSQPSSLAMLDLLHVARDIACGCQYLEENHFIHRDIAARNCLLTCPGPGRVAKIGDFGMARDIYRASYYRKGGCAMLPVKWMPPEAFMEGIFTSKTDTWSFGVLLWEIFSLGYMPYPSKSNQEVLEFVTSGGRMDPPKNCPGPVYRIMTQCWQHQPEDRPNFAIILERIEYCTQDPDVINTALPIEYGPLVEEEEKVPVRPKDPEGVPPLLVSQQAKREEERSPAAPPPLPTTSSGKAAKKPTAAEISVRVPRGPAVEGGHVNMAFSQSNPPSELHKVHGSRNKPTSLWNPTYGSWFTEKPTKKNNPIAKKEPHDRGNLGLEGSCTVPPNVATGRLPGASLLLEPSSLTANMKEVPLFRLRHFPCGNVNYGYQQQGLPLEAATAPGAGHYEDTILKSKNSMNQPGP
The target in assay [3] is T1, off-target kinases (Homo sapiens, UniProt Q99759).
T1 sequence (Q99759 1-626): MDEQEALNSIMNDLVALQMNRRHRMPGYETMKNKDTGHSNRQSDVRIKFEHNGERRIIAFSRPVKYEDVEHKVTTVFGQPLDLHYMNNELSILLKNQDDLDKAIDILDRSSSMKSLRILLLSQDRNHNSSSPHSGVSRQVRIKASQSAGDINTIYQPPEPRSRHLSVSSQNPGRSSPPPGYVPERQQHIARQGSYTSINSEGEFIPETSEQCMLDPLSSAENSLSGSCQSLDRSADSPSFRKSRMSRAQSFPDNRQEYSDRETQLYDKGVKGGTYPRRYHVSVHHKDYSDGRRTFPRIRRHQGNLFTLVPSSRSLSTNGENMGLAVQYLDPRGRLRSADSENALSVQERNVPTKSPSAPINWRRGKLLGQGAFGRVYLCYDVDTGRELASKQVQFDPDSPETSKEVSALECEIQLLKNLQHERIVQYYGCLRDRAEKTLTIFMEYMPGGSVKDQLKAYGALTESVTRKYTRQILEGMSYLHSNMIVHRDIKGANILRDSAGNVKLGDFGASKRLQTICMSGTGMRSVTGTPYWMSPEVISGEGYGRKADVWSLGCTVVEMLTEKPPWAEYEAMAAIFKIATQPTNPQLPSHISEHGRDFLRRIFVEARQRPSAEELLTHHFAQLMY
To be noted: MAP3K3 (MEKK3), LanthaScreen Binding.

The target of assay [4] is off-target kinases (Homo sapiens, UniProt P07949, Y791F). To be noted: RET Y791F, ATP Km app, ZLYTE.
off-target kinases (Homo sapiens, UniProt P07949, Y791F), sequence (P07949 29-1114 Y791F): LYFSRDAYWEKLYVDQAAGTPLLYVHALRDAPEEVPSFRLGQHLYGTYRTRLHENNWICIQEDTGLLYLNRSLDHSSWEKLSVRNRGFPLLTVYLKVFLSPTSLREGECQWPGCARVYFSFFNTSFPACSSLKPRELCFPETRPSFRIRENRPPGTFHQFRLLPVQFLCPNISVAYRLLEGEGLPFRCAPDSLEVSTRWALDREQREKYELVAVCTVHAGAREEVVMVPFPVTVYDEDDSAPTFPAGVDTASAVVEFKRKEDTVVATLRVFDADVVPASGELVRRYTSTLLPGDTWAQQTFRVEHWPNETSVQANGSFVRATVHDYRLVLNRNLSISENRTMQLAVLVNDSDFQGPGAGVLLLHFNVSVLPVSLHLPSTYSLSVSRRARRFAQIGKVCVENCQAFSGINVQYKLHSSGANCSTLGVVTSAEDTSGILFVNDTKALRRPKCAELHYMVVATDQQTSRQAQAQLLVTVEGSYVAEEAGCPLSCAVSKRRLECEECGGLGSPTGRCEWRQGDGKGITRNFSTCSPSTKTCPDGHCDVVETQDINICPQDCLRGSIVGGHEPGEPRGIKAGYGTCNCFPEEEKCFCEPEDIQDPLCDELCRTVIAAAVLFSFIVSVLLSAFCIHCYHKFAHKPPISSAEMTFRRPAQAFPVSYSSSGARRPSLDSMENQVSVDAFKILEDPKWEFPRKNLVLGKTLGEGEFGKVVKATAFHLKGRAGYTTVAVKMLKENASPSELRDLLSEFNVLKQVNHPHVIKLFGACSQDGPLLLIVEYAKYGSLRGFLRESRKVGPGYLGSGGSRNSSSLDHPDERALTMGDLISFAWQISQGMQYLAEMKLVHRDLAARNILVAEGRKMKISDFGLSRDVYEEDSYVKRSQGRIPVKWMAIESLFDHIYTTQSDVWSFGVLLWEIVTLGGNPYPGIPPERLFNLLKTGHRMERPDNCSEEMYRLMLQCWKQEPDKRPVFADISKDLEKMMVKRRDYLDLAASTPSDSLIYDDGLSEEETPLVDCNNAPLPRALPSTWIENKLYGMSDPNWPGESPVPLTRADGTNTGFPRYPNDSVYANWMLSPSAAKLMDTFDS
Assay [5] has as its target T2, off-target kinases (Homo sapiens, UniProt Q8TD08).
T2 sequence (Q8TD08 1-544): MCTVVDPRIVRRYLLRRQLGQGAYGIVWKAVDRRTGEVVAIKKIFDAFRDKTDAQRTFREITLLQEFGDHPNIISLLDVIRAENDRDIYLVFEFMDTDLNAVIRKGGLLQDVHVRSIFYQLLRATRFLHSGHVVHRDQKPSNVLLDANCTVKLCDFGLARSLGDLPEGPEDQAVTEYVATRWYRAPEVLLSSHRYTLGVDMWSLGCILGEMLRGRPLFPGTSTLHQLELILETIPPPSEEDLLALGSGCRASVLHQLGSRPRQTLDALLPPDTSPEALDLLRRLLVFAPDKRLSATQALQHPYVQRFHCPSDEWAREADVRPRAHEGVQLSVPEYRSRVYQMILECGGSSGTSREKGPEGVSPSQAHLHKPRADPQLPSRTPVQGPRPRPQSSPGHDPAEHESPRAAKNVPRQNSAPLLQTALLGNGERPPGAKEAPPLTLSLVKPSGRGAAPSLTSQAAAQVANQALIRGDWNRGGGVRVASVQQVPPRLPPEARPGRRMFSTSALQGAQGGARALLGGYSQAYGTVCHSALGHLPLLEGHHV
To be noted: MAPK15 (ERK7), LanthaScreen Binding.

Assay [6] addresses off-target kinases (Homo sapiens, UniProt Q9HBH9). Conditions: MKNK2 (MNK2), LanthaScreen Binding.
Assay [7] addresses off-target kinases (Homo sapiens, UniProt P43405). To be noted: SYK, 1000 μM, ATP Km app, ZLYTE.

off-target kinases (Homo sapiens, UniProt Q9HBH9), sequence (Q9HBH9 whole entry): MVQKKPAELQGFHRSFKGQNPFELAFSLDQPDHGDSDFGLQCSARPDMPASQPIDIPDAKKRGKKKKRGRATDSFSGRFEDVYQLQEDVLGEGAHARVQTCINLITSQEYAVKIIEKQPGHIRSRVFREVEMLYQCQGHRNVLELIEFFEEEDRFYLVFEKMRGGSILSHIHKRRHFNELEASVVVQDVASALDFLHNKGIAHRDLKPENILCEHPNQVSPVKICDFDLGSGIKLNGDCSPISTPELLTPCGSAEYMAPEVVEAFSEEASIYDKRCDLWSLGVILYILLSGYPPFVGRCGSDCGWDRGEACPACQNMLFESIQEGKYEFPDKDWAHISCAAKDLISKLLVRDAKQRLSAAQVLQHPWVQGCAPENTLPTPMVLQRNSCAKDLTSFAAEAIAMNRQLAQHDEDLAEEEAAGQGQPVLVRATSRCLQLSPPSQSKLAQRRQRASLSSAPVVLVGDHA

Consider `N#Cc1cc(-c2ncnc(Nc3ccc(N4CCN(C5COC5)CC4)cc3)n2)ccc1OC1CCOCC1` [Compound 1, 5-(4-((4-(4-(oxetan-3-yl)piperazin-1-yl)phenyl)amino)-1,3,5-triazin-2-yl)-2-((tetrahydro-2H-pyran-4-yl)oxy)benzonitrile], for which the inhibition on off-target kinases [1] (read-out: % Inhibition 1) is 10%; on off-target kinases [1] (read-out: % Inhibition 2) it was -9%; on off-target kinases [1] (read-out: % Inhibition Avg) it was 0%; on off-target kinases [2] (read-out: % Inhibition 1), 12%; on off-target kinases [2] (read-out: % Inhibition 2) it was 14%; on off-target kinases [2] (read-out: % Inhibition Avg), 13%. Besides, the inhibition at off-target kinases [3] (read-out: % Inhibition 1) is 10%; on off-target kinases [3] (read-out: % Inhibition 2), 13%; on off-target kinases [3] (read-out: % Inhibition Avg), 12%; at off-target kinases [4] (read-out: % Inhibition 1), 57%; at off-target kinases [4] (read-out: % Inhibition 2), 43%; at off-target kinases [4] (read-out: % Inhibition Avg) it was 50%. In addition, the inhibition at off-target kinases [5] (read-out: % Inhibition 1) came to 100%; on off-target kinases [5] (read-out: % Inhibition 2) it was 100%; on off-target kinases [5] (read-out: % Inhibition Avg) it was 100%; at off-target kinases [6] (read-out: % Inhibition 1), 86%; on off-target kinases [6] (read-out: % Inhibition 2) it was 88%; at off-target kinases [6] (read-out: % Inhibition Avg) it was 87%. Besides, the inhibition at 1000 µM at off-target kinases [7] (read-out: % Inhibition 1) was determined as 44%; at off-target kinases [7] (read-out: % Inhibition 2), 49%; at off-target kinases [7] (read-out: % Inhibition Avg), 46%.
